Source: patent US20080026996A1, “Selective Vpac2 Receptor Reptide Agonists” (ELI LILLY AND COMPANY, priority 2004, published 2008)
Where a SMILES comes first, the peptide text is derived from it. Where no end group is shown, it is not given here. [ ]: non-standard residue; d: D form. The star is where a group is joined. Hexanoyl = CCCCCC(=O)*; Aib = CC(C)(N)C(=O)O

Tests used:
human PAC1 = biological target: T1, human PAC1 (Homo sapiens, UniProt P41586); test: Filter binding assay, membranes of cells transiently transfected with human PAC1, 125I-labeled PACAP-27 tracer (Table 2); set-up: expressed in transfected cells; conditions: read-out: Human PAC1 Receptor Binding
T1 sequence (P41586 21-468): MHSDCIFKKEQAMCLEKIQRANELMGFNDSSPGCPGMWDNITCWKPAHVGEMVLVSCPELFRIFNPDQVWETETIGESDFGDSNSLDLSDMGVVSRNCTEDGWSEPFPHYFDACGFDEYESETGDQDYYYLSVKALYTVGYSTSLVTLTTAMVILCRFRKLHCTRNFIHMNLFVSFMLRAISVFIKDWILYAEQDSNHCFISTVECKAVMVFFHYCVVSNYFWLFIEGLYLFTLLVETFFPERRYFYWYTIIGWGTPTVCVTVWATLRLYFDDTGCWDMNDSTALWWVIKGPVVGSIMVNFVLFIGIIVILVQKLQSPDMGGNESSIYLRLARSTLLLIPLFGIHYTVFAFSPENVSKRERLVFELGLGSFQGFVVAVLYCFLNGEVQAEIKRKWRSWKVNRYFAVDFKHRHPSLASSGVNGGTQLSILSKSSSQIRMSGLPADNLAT
Procedure, shortened: (§1)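 Radioligand displacement was measured with 2.5 μg membrane protein per well and roughly 40000 cpm of iodinated tracer. After a 1-hour incubation, bound and free label were separated on BSA-blocked glass-fibre filters and quantified by scintillation.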

human VPAC2 [1] = biological target: T2, human VPAC2 (Homo sapiens, UniProt P41587); test: Alpha screen cAMP in vitro potency, human VPAC2 receptor; format: cell-based; conditions: cAMP generation; single result from two analyses performed in a single run; read-out: Human VPAC2 Receptor: Alpha Screen EC50
T2 construct: expressed in transfected cells
T2 sequence (P41587 24-438): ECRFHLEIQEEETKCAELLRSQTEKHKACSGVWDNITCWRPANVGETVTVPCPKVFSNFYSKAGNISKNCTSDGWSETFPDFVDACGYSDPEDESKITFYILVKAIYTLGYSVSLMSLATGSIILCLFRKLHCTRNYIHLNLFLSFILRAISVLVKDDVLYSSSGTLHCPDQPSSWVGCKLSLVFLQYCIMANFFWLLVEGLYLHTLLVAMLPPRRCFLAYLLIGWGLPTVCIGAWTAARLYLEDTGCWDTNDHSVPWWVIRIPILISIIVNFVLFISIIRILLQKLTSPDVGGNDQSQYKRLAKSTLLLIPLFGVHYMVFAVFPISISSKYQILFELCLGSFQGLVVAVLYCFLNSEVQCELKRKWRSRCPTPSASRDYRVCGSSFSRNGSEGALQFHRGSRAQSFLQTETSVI
Procedure, shortened: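 This followed a 60 min stimulation of 50,000 enzyme-free-dissociated cells per point with acceptor beads in stimulation buffer.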

human VPAC2 [2] = biological target: T2, human VPAC2; test: Filter binding assay, membranes of stable VPAC2 cell line, 125I-labeled VIP tracer (Table 2); conditions: read-out: Human VPAC2 Receptor Binding
Procedure, shortened: as §1

[3] = Rat serum stability studies (remaining active peptide by DiscoveRx cAMP on CHO-VPAC2 cells); format: in vitro ADME
Procedure, shortened: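 EC50 from a DiscoveRx cAMP read-out on CHO-VPAC2 cells indexes how much peptide stays active after 18 h in rat serum at 37° C without aprotinin, against an aprotinin-protected 4° C aliquot.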

human VPAC1 = biological target: T3, human VPAC1 (Homo sapiens, UniProt P32241); test: Filter binding assay, membranes of cells transiently transfected with human VPAC1, 125I-labeled VIP tracer (Table 2); set-up: expressed in transfected cells; conditions: read-out: Human VPAC1 Receptor Binding
T3 sequence (P32241 31-457): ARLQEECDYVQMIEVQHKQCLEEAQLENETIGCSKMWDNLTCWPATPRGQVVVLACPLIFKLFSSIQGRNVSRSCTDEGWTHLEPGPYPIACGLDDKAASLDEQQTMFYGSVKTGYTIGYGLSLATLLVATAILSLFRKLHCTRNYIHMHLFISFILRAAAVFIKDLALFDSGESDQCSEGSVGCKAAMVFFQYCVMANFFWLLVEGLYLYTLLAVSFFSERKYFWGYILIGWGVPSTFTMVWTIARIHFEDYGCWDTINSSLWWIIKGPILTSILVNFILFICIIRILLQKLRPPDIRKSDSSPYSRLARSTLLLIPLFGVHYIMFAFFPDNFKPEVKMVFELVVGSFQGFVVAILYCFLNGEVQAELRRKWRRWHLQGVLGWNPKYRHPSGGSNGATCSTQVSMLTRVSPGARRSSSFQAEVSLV
Procedure, shortened: as §1

Molecule `CCCCCC(=O)N[C@@H](Cc1c[nH]cn1)C(=O)N[C@@H](CO)C(=O)N[C@@H](CC(=O)O)C(=O)N[C@@H](C)C(=O)N[C@H](C(=O)N[C@@H](Cc1ccccc1)C(=O)N[C@H](C(=O)N[C@@H](CC(=O)O)C(=O)N[C@@H](CCC(N)=O)C(=O)N[C@@H](Cc1ccc(O)cc1)C(=O)N[C@H](C(=O)N[C@@H](CCCNC(=N)N)C(=O)N[C@@H](CC(C)C)C(=O)N[C@@H](CCCNC(=N)N)C(=O)N[C@@H](CCCNC(=N)N)C(=O)N[C@@H](CCC(N)=O)C(=O)N[C@H](C(=O)N[C@@H](C)C(=O)N[C@@H](C)C(=O)N[C@@H](CCCNC(=N)N)C(=O)N[C@@H](CCCCN)C(=O)N[C@@H](Cc1ccc(O)cc1)C(=O)N[C@@H](CC(C)C)C(=O)N[C@@H](CCC(N)=O)C(=O)N[C@@H](CO)C(=O)N[C@H](C(=O)N[C@@H](CCCNC(=N)N)C(=O)N[C@@H](CCC(N)=O)C(=O)NCC(=O)NCC(=O)N1CCC[C@H]1C(=O)N[C@@H](CO)C(=O)N[C@@H](CO)C(=O)NCC(=O)N[C@@H](C)C(=O)N1CCC[C@H]1C(=O)N1CCC[C@H]1C(=O)N1CCC[C@H]1C(=O)N[C@@H](CO)C(=O)O)[C@@H](C)CC)C(C)C)[C@@H](C)O)[C@@H](C)O)C(C)C` [Agonist P220] (Hexanoyl-HSDAVFTDQYTRLRRQVAARKYLQSIRQGGPSSGAPPPS-OH; C-terminus assumed) has an IC50 (human PAC1) of 849 nM, an EC50 (human VPAC2 [1]) of 0.12 nM and an IC50 (human VPAC2 [2]) of 0.25 nM. For the same molecule, the “Rat Serum Stability (estimated purity in % after 18 hours)” value [3] was 0.08% and the IC50 (human VPAC1) was 5.86 nM.
With “Hexanoyl-HSDAVFTDNYTRLRKQVALKKYLQSIKNKRYGGPSSGAPPPS [Agonist P155]” the IC50 (human PAC1) was 148 nM, the EC50 (human VPAC2 [1]) was 0.24 nM and the IC50 (human VPAC2 [2]) was 0.71 nM. The “Rat Serum Stability (estimated purity in % after 18 hours)” value [3] was 0.25% and the IC50 (human VPAC1) was 231 nM.
In the case of “Hexanoyl-HGEGTFTDNYTRLRKQVAAKKYLQSIKNKRYGGPSSGAPPPS [Agonist P222]”, the IC50 (human PAC1) is reported as 466 nM, the EC50 (human VPAC2 [1]) is reported as 0.51 nM and the IC50 (human VPAC2 [2]) is reported as 1.05 nM. The “Rat Serum Stability (estimated purity in % after 18 hours)” value [3] was 0.23% and the IC50 (human VPAC1) was 177 nM.
With “Hexanoyl-HSDAVFTDNYTRLRKQVAAIKYLQSIKNKRYGGPSSGAPPPS [Agonist P149]” the IC50 (human PAC1) was 773 nM, the EC50 (human VPAC2 [1]) was 0.41 nM and the IC50 (human VPAC2 [2]) was 0.61 nM. The “Rat Serum Stability (estimated purity in % after 18 hours)” value [3] was 0.29% and the IC50 (human VPAC1) was 212 nM.
“Hexanoyl-HSDAVFTDNYTRLRKQVAAKKYAQSIKNKRYGGPSSGAPPPS [Agonist P235]” showed an IC50 (human PAC1) of 1110 nM, an EC50 (human VPAC2 [1]) of 0.82 nM and an IC50 (human VPAC2 [2]) of 1.47 nM. The “Rat Serum Stability (estimated purity in % after 18 hours)” value [3] was 2.62% and the IC50 (human VPAC1) was 1340 nM.
For “Hexanoyl-HSDAVFTDNYTRLQKQVAA[Aib]KYLQSIKNKRYGGPSSGAPPPS [Agonist P250]”, the IC50 (human PAC1) was > 25000 nM, the EC50 (human VPAC2 [1]) was 0.18 nM and the IC50 (human VPAC2 [2]) was 0.63 nM. The “Rat Serum Stability (estimated purity in % after 18 hours)” value [3] was 7.11% and the IC50 (human VPAC1) was 855 nM.
Molecule “Hexanoyl-HSDAVFTDNYTRL[Aib]KQVAAKKYLQSIKNKRYGGPSSGAPPPS [Agonist P167]” has an IC50 (human PAC1) of 1010 nM, an EC50 (human VPAC2 [1]) of 0.17 nM and an IC50 (human VPAC2 [2]) of 1.14 nM. For the same molecule, the “Rat Serum Stability (estimated purity in % after 18 hours)” value [3] was 14.98% and the IC50 (human VPAC1) was 1150 nM.
“Hexanoyl-HSDAVFTDNYTRLRAQVAAQKYLQSIKNKRYGGPSSGAPPPS [Agonist P138]” gave an IC50 (human PAC1) of 1110 nM, an EC50 (human VPAC2 [1]) of 0.45 nM and an IC50 (human VPAC2 [2]) of 1.01 nM. For the same molecule, the “Rat Serum Stability (estimated purity in % after 18 hours)” value [3] was 0.48% and the IC50 (human VPAC1) was 5.28 nM.
Molecule “Hexanoyl-HSDAVFTDNYTRLRKQVAAKKYWQSIKNKRYGGPSSGAPPPS [Agonist P230]” has an IC50 (human PAC1) of 463 nM, an EC50 (human VPAC2 [1]) of 0.3 nM and an IC50 (human VPAC2 [2]) of 0.75 nM. The “Rat Serum Stability (estimated purity in % after 18 hours)” value [3] was 0.53% and the IC50 (human VPAC1) was 661 nM.
With “Hexanoyl-HSDAVFTDNYTRLQKQVAAK[Aib]YLQSIKNKRYGGPSSGAPPPS [Agonist P251]” the IC50 (human PAC1) was > 25000 nM, the EC50 (human VPAC2 [1]) was 0.92 nM and the IC50 (human VPAC2 [2]) was 2.33 nM. The “Rat Serum Stability (estimated purity in % after 18 hours)” value [3] was 6.63% and the IC50 (human VPAC1) was > 3000 nM.
